Columns and labels:
[1] = molecular target: T1, human CCR5 chemokine receptor (Homo sapiens, UniProt P51681); assay: Inhibition of [125I]-RANTES binding to CCR5/CHO cells (CCR5 antagonistic activity); details: 40 min, test compound 1 μM, [125I]-RANTES as ligand, room temperature, read-out: Binding Inhibitory Ratio (%)
T1 construct: expressed in transfected cells
Procedure: Cloning of CCR5 gene from human spleen cDNA was conducted using the PCR method. Using spleen cDNA (0.5 ng) (TOYOBO CO., LTD, QUICK-Clone cDNA) as a template, PCR was performed in a DNA Thermal Cycler 480 (manufactured by Perkin Elmer) (reaction conditions: 30 cycles of 95° C. for 1 minute, 60° C. for 1 minute, and 75° C. for 5 minutes) by adding primer sets, SEQ. ID NO: 1 (sequence length: 34; sequence type: nucleic acid; chain number: single strand; topology: linear; kind of sequence: other nucleic acid synthetic. DNA) described in Experimental. Example (1) of WO 99/32100, and SEQ ID NO: 2 (sequence length: 34; sequence type: nucleic acid; chain number: single strand; topology: linear; kind of sequence: other nucleic acid synthetic. DNA) described in Experimental. Example (1) of WO 99/32100, (25 pmol, respectively), which were prepared referring to the nucleotide sequence of CCR5 gene, as reported by Samson et al. (Biochemistry 35 (11), 3362-3367 (1996)) and by using TaKaRa. EX Taq (Takara Shuzo). The resultant. PCR product was subjected to agarose gel electrophoresis to collect an approximately 1.0 kb. DNA fragment, which was subjected to an Original TA Cloning Kit (Funakoshi Co., Ltd.) to carry out cloning of CCR5 gene.
The plasmid obtained above was digested with restriction enzymes XbaI (Takara Shuzo Co., Ltd.) and BamHI (Takara Shuzo Co., Ltd.), and then subjected to agarose gel electrophoresis to collect DNA fragment of about 1.0 kb. The DNA fragment and plasmid pcDNA 3.1 (Funakoshi. Co., Ltd.) for expression in animal cells, which was previously digested with XbaI and BamHI, were mixed and ligated by DNA Ligation Kit Ver. 2 (Takara Shuzo Co., Ltd.). The resulting plasmid was subjected to transformation into. E. coli JM109 competent cells (Takara Shuzo Co., Ltd.) to obtain plasmid pCKR5.
CHO-K1 cells were cultured in a 750-ml tissue culture flask (Becton, Dickinson and Company.) using. Ham F12 medium (NIHON PHARMACEUTICAL CO., LTD.) containing 10% fetal bovine serum (Lifetech Oriental) and were collected using 0.5 g/L trypsin-0.2 g/L EDTA (Lifetech Oriental). The cells were washed with PBS (Lifetech Oriental), centrifuged (1000 rpm, 5 minutes), and suspended in PBS. The DNA was introduced into the cells using a Gene Pulser (Bio-Rad Laboratories, Inc.) under the following conditions. Namely, 8×10^6 cells and 10 μg of plasmid pCKR5 for expression of human CCR5 were placed in a cuvette having a 0.4-cm gap, and electroporation was carried out with a voltage 0.25 kV and 960 μF of capacitance. Then, the cells were transferred into Ham's. F12 medium containing 10% fetal bovine serum, and incubated for 24 hours. The cells were collected, centrifuged, and suspended in Ham' F12 medium containing 10% fetal bovine serum and Geneticin (Lifetech Oriental) at a concentration of 500 μg/ml. The suspension of cells was diluted to a concentration of 10^4 cells/ml, and was inoculated onto 96-well plate (Becton Dickinson), to obtain Geneticin-resistant strain.
Then, resulting. Geneticin-resistant strain were cultured on 96-well plate (Becton Dickinson), and CCR5-expressing cells were selected from the resistant cells. Namely, in an assay buffer, (Ham's F12 medium containing 0.5% BSA, and 20 mM HEPES (Wako Pure Chemical Ind., pH 7.2)) to which was added […][125I]-RANTES (Amersham) as a ligand, the cells were subjected to a binding reaction at room temperature for 40 minutes. Wells containing the cells were washed with ice-cooled PBS, and 50 μl/well of 1M NaOH was added and stirred. The cells to which the ligand was bound specifically, i.e., CCR5/CHO cells, were selected by measurement of radioactivity using a […].
The CCR5/CHO cells were inoculated onto 96-well microplate at a concentration of 5×10^4 cells/well, and were cultured for 24 hours. After removal of the medium by aspiration, to each well was added an assay buffer containing a test compound (1 μM), and [125I]/RANTES (Amersham) used as a ligand at a concentration of […]. […]

T1 sequence (P51681 whole entry): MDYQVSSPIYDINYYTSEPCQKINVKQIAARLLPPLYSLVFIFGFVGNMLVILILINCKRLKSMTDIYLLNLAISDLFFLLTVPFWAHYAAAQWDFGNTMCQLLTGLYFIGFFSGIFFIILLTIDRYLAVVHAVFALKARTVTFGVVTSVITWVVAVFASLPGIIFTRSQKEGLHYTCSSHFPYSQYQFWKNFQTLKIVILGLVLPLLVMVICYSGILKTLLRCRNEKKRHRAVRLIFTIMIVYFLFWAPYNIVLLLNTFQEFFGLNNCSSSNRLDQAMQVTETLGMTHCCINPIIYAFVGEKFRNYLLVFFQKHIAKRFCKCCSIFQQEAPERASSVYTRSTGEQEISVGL

Row | SMILES | melting point [°C] | inhibition at 1 µM [1] [%]
1 | CCCCOCCOc1ccc(-c2ccc3c(c2)C=C(C(=O)Nc2ccc([S+]([O-])Cc4nncn4CC)cc2)CCN3CC(C)C)cc1 (stereo not drawn) [Compound 135, 7-[4-(2-butoxyethoxy)phenyl]-N-[4-(4-ethyl-4H-1,2,4-triazol-3-ylmethylsulfinyl)phenyl]-1-isobutyl-2,3-dihydro-1H-benzazepine-4-carboxamide] | 102 to 104 | 100
2 | CCCCOCCOc1ccc(-c2ccc3c(c2)C=C(C(=O)Nc2ccc(SCc4nccn4CCCC(N)=O)cc2)CCN3CC(C)C)cc1 [Compound 415, N-[4-[[[1-(4-amino-4-oxobutyl)-1H-imidazol-2-yl]methyl]thio]phenyl]-7-[4-(2-butoxyethoxy)phenyl]-1-isobutyl-2,3-dihydro-1H-1-benzazepine-4-carboxamide] | 142 to 143 | 98
3 | CCCCOCCOc1ccc(-c2ccc3c(c2)C=C(C(=O)Nc2ccc(CCCn4cnnc4)cc2)CCN3CC(C)C)cc1 [Compound 63, 7-[4-(2-butoxyethoxy)phenyl]-1-isobutyl-N-[4-[3-(4H-1,2,4-triazol-4-yl)propyl]phenyl]-2,3-dihydro-1H-1-benzazepine-4-carboxamide] | 165 to 167 | 96
4 | CCCCOCCOc1ccc(-c2ccc3c(c2)C=C(C(=O)Nc2ccc(SCc4nncn4CCC)c(C)c2)CCN3CC(C)C)cc1 [Compound 40, 7-[4-(2-butoxyethoxy)phenyl]-1-isobutyl-N-[3-methyl-4-[(4-propyl-4H-1,2,4-triazol-3-yl)methylthio]phenyl]-2,3-dihydro-1H-1-benzazepine-4-carboxamide] | 104 to 107 | 90
5 | CCCCOCCOc1ccc(-c2ccc3c(c2)C=C(C(=O)Nc2ccc([S+]([O-])Cc4nccn4CCCC(=O)NC)cc2)CCN3CC(C)C)cc1 (stereo not drawn) [Compound 424, 7-[4-(2-butoxyethoxy)phenyl]-N-[4-[[[1-[4-(methylamino)-4-oxobutyl]-1H-imidazol-2-yl]methyl]sulfinyl]phenyl]-1-isobutyl-2,3-dihydro-1H-1-benzazepine-4-carboxamide] | 159 to 161 | 96
6 | CCCCOCCOc1ccc(-c2ccc3c(c2)C=C(C(=O)Nc2ccc([S+]([O-])Cc4nccn4CCOC(C)=O)cc2)CCN3CC(C)C)cc1 (stereo not drawn) [Compound 411, [2-[[[4-[[[7-[4-(2-butoxyethoxy)phenyl]-1-isobutyl-2,3-dihydro-1H-1-benzazepin-4-yl]carbonyl]amino]phenyl]sulfinyl]methyl]-1H-imidazol-1-yl]ethyl acetate] |  | 100
7 | CCCCOCCOc1ccc(-c2ccc3c(c2)C=C(C(=O)Nc2ccc([S+]([O-])Cc4cncn4CCOC)cc2)CCN3CC(C)C)cc1 (stereo not drawn) [Compound 308, 7-[4-(2-butoxyethoxy)phenyl]-1-isobutyl-N-[4-[[[1-(2-methoxyethyl)imidazol-5-yl]methyl]sulfinyl]phenyl]-2,3-dihydro-1-benzazepine-4-carboxamide] |  | 100
8 | CCCCOCCOc1ccc(-c2ccc3c(c2)C=C(C(=O)Nc2ccc(SCc4cncn4C(C)C)cc2)CCN3CC(C)C)cc1 [Compound 383, 7-[4-(2-butoxyethoxy)phenyl]-1-isobutyl-N-[4-[[[1-isopropylimidazol-5-yl]methyl]sulfanyl]phenyl]-2,3-dihydro-1-benzazepine-4-carboxamide] |  | 93
9 | CCCCOCCOc1ccc(-c2ccc3c(c2)C=C(C(=O)Nc2ccc([C@H](O)c4cccc[n+]4[O-])cc2)CCN3Cc2cnn(C)c2)cc1 [Compound 87, 7-[4-(2-butoxyethoxy)phenyl]-N-[4-[(S)-hydroxy(1-oxidopyridin-2-yl)methyl]phenyl]-1-(1-methylpyrazol-4-ylmethyl)-2,3-dihydro-1H-1-benzazepine-4-carboxamide] | 94 to 97 | 89

— patent US7262185B2, “Benzazepine derivative, process for producing the same, and use” (Takeda Chemical Industries Ltd., priority 2001, dated 2007)
